Patent publication US9815835B2, “Substituted polycyclic carbamolypyridone derivative” (priority 2009, dated 2017)

Tested on: influenza virus
Assay: microbe, parasite or virus in culture
Format: cell-based, influenza virus (MDBK or MDCK cells)
Conditions: unidentified influenza virus, 72 h, read-out: CPE EC50, effective concentration to achieve 50% CPE inhibition, 3 days incubation, WST-8

Row | Compound | EC50 [nM]
1 | CC(C)OCCN1C[C@H](C(c2ccccc2)c2ccccc2)n2cc(C(=O)O)c(=O)c(O)c2C1=O [Example 184] | 403
2 | CC(C)N1C(=O)c2c(O)c(=O)ccn2N(C2c3ccccc3CCc3ccccc32)C1CCN(C)C (centres unmarked) [Example 537] | 22
3 | C[C@@H](N1CN([C@H]2c3cc(F)ccc3CSc3ccc(F)cc32)n2ccc(=O)c(O)c2C1=O)C(F)(F)F [Example 462] | 11
4 | COCCN1C[C@H](C(c2ccccc2)c2ccccc2)n2cc(Cl)c(=O)c(O)c2C1=O [Example 558] | 541
5 | CSCC1N(C(C)C)C(=O)c2c(O)c(=O)ccn2N1C1c2ccccc2CCc2ccccc21 (centres unmarked) [Example 514] | 18
6 | C[C@H](N1CN([C@H]2c3ccccc3CSc3ccc(F)cc32)n2ccc(=O)c(O)c2C1=O)C(F)(F)F [Example 461] | 74
7 | CC(=O)OCCN1CN(C2c3ccccc3CSc3ccccc32)n2ccc(=O)c(O)c2C1=O (centres unmarked) [Example 325] | 25
8 | C[C@@H](N1CN([C@H]2c3ccccc3CSc3cc(F)ccc32)n2ccc(=O)c(O)c2C1=O)C(F)(F)F [Example 458] | 14
9 | C[C@@H](N1CN([C@H]2c3ccccc3CSc3ccc(Cl)cc32)n2ccc(=O)c(O)c2C1=O)C(F)(F)F [Example 455] | 71
10 | O=C1c2c(O)c(=O)ccn2N(C2c3ccccc3CSc3c(Cl)cccc32)CN1CCO (centres unmarked) [Example 382] | 94
11 | Cc1noc(CN2CN(C3c4ccccc4CCc4ccccc43)n3ccc(=O)c(O)c3C2=O)n1 [Example 270] | 129
12 | CC(=O)OCCN1CN(C2c3ccccc3CCc3ccccc32)n2ccc(=O)c(O)c2C1=O [Example 276] | 89
13 | CN1CN(C2c3ccccc3CSc3c(F)cccc32)n2ccc(=O)c(O)c2C1=O (centres unmarked) [Example 354] | 83
14 | C[C@H](N1CN([C@H]2c3ccccc3CSc3ccc(Cl)cc32)n2ccc(=O)c(O)c2C1=O)C(F)(F)F [Example 475] | 441
15 | C[C@@H](N1CN([C@H]2c3ccccc3CSc3c(Cl)cccc32)n2ccc(=O)c(O)c2C1=O)C(F)(F)F [Example 450] | 14
16 | CCC(C)N1C[C@H](C(c2ccccc2)c2ccccc2)n2cc(C(=O)O)c(=O)c(O)c2C1=O (some centres unmarked) [Example 186] | 159
17 | CC(=O)N1CC[C@@H](N2CN(C3c4ccccc4CSc4ccccc43)n3ccc(=O)c(O)c3C2=O)C1 (some centres unmarked) [Example 289] | 419
18 | C[C@H](N1CN([C@H]2c3ccccc3CSc3ccccc32)n2ccc(=O)c(O)c2C1=O)C(F)(F)F [Example 416] | 19
19 | C[C@@H](N1CN(C2c3ccccc3COc3ccc(F)cc32)n2ccc(=O)c(O)c2C1=O)C(F)(F)F (some centres unmarked) [Example 410] | 14
20 | CC(C)N1CN(C2c3ccccc3CSc3ccccc32)n2ccc(=O)c(O)c2C1=O (centres unmarked) [Example 301] | 17
21 | CC(C)C[C@@H](CO)N1CN(C2c3ccccc3CSc3ccccc32)n2ccc(=O)c(O)c2C1=O (some centres unmarked) [Example 377] | 22
22 | CC(CN1CCOCC1)N1CN(C2c3ccccc3CSc3ccccc32)n2ccc(=O)c(O)c2C1=O (centres unmarked) [Example 483] | 27
23 | CCN1C(=O)c2c(O)c(=O)ccn2C(C2c3ccccc3CSc3ccccc32)N1CC (centres unmarked) [Example 502] | 142
24 | CC(C)N1CN(C2c3ccccc3CSc3ccc(Cl)cc32)n2ccc(=O)c(O)c2C1=O (centres unmarked) [Example 328] | 168
25 | C[C@@H](N1CN([C@H]2c3ccccc3SCc3cccc(Cl)c32)n2ccc(=O)c(O)c2C1=O)C(F)(F)F [Example 430] | 29
26 | C[C@H](N1CN([C@@H]2c3ccccc3SCc3cccc(Cl)c32)n2ccc(=O)c(O)c2C1=O)C(F)(F)F [Example 431] | 11
27 | CC(C)(C)[C@@H](CO)N1CN(C2c3ccccc3CSc3ccccc32)n2ccc(=O)c(O)c2C1=O (some centres unmarked) [Example 380] | 18
28 | COCCN1CN(C2c3cc(F)ccc3COc3cc(F)ccc32)n2ccc(=O)c(O)c2C1=O (centres unmarked) [Example 402] | 81
29 | CC(CN(C)C)N1CN(C2c3ccccc3CSc3c(Cl)cccc32)n2ccc(=O)c(O)c2C1=O (centres unmarked) [Example 481] | 86
